Measured values: patent US5344780A, “Method for determining indole compounds associated with boar taint in pork as well as a sample container to be used in the method” (priority 1990, dated 1994)
Several values for one entry are separate records, joined by “and”; a condition that tells them apart may be missing. Identical values can stand only once.

Assay: HPLC-analysis of extracted lard with heating (Example 1; also reproducibility test)
Parameters: species or system pig
Protocol: The present Example illustrates the extraction on the entire sample of lard and the determination of indole and skatole by HPLC.
A sample of lard of 5 g is taken subcutaneously from the occipital region of a carcass. The sample is placed in a container and heated at 80° C. for 10 minutes in microwave oven in order to melt the fat. An amount of 5 ml of methanol is then added to the sample which is shaken, whereupon the sample is extracted for 10 minutes. Subsequently, the sample is filtered to remove the fat and connective tissue and analyzed by HPLC under the following conditions:
HPLC-apparatus: Merck HPLC with fluorescence detector and autosampler,
Eluant: water:methanol (20:80) (volume:volume)
Fluorescence detector: excitation wavelength=285 nm, emission wavelength=340 nm
Column: Lichrocart 250-4, Lichrospher 100 RP18, 5 micron, reverse phase
Injection volume: 20 microliter,
Detection limit: 5 ppb (0,005 ppm) in solution […]
The samples were such analyzed 10 times.

ppb skatole at HPLC-analysis, overall average (Table 2, 4 samples, n = 40): 48.47 ppb
ppb skatole at HPLC-analysis, lowest (Table 2, samples 1-4): 44.13 ppb and 43.87 ppb and 49.07 ppb
ppb skatole at HPLC-analysis, overall average (Table 3, 3 samples, n = 30): 71.38 ppb
ppb skatole at HPLC-analysis (Table 3, sample 3, analyses 1-10): 72.00 ppb and 69.33 ppb and 66.67 ppb
ppb skatole at HPLC-analysis, highest (Table 3, samples 1-3): 77.33 ppb and 74.67 ppb and 72.00 ppb
ppb skatole at HPLC-analysis, lowest (Table 3, samples 1-3): 69.33 ppb and 66.67 ppb
ppb skatole at HPLC-analysis, average per sample (Table 3, samples 1-3, 10 analyses each): 73.60 ppb and 70.13 ppb and 70.40 ppb
Structure (SMILES): Cc1c[nH]c2ccccc12 [Skatole, skatole]
ppb skatole at HPLC-analysis, highest (Table 2, samples 1-4): 50.00 ppb and 50.93 ppb and 52.80 ppb and 51.87 ppb
ppb skatole at HPLC-analysis, average per sample (Table 2, samples 1-4, 10 analyses each): 47.61 ppb and 47.63 ppb and 50.67 ppb and 47.96 ppb
ppb skatole at HPLC-analysis (Table 3, sample 1, analyses 1-10): 72.00 ppb and 69.33 ppb and 74.67 ppb and 77.33 ppb
ppb skatole at HPLC-analysis (Table 3, sample 2, analyses 1-10): 74.67 ppb and 69.33 ppb and 66.67 ppb and 72.00 ppb
